# According to ChEMBL document CHEMBL5154726, “Identification of triazolopyridine derivatives as a new class of AhR agonists and evaluation of anti-psoriasis effect in a mouse model” (Eur J Med Chem, 2022):
# System: not listed separately
# Experiment: n-Octanol/water partition coefficient, logD of the compound at 1 mg incubated for 48 hrs under shaking condition by LC/MS analysis
# Type: physicochemical
# Conditions: not given
row,logD at 48 h,Structure (SMILES)
1,2.59,[O-][n+]1c(-c2ccc(Br)cc2)nc2ccc(Br)cn21

# System: not listed separately
# Experiment: Efflux ratio of apparent permeability in MDCK cells
# Type: ADME, cell-based, Canis lupus familiaris
# Conditions: dog
row,efflux ratio,Structure (SMILES)
1,6.2,[O-][n+]1c(-c2ccc(Br)cc2)nc2ccc(Br)cn21

# System: not listed separately
# Experiment: Solubility of the compound incubated for 48 hrs under shaking condition by LC/MS analysis
# Type: physicochemical
# Conditions: not given
row,solubility thermodynamic at 48 h,Structure (SMILES)
1,2.24 µg/mL,[O-][n+]1c(-c2ccc(Br)cc2)nc2ccc(Br)cn21

# System: not listed separately
# Experiment: Apparent permeability in MDCK cells at 50 uM incubated for 90 mins by LC/MS analysis
# Type: ADME, cell-based, Canis lupus familiaris
# Conditions: dog
row,"Papp at 1.5 h, 50 µM",Structure (SMILES)
1,1.43 ×10⁻⁶ cm/s,[O-][n+]1c(-c2ccc(Br)cc2)nc2ccc(Br)cn21

# Biological target: T1, Aryl hydrocarbon receptor (Homo sapiens, UniProt P35869)
# T1 sequence (P35869 whole entry): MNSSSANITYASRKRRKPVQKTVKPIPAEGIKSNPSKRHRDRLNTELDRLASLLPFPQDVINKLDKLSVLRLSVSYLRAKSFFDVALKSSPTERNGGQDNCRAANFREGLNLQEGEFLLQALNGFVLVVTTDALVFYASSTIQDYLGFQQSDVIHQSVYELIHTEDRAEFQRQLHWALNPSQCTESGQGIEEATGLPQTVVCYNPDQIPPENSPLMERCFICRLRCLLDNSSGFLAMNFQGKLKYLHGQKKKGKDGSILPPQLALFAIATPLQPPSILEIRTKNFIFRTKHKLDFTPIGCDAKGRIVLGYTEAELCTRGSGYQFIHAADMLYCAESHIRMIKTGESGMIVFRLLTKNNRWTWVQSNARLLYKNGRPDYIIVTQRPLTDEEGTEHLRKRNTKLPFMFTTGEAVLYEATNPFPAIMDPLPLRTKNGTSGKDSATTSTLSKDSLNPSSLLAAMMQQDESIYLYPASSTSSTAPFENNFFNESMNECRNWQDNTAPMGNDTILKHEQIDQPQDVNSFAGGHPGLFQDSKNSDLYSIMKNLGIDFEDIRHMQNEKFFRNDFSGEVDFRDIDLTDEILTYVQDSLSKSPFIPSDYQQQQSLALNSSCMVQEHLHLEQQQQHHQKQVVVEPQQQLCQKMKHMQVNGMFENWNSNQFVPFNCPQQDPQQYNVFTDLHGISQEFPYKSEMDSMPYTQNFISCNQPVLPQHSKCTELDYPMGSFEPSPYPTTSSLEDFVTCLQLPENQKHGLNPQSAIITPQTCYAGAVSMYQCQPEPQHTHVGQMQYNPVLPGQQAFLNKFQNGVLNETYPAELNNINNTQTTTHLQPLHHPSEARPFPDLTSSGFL
# Experiment: Agonist activity at AhR in human recombinant HepG2-Lucia AhR cell incubated for 24 hrs by luciferase reporter gene assay
# Type: cell-based
# Conditions: not given
row,EC50,Structure (SMILES)
1,374 nM,[O-][n+]1c(-c2ccc(Br)cc2)nc2c(Br)cccn21
2,> 10000 nM,Cc1ccc2nc(-c3ccc(Br)cc3)nn2c1
3,> 10000 nM,[O-][n+]1c(-c2ccc(-c3ccc(Cl)cc3)o2)nc2ccccn21
4,156 nM,Clc1ccc2nc(-c3ccc(Br)cc3)nn2c1
5,77 nM,N#Cc1ccc2nc(-c3ccc(Br)cc3)[n+]([O-])n2c1
6,> 10000 nM,Brc1ccc2nc(-c3ccccc3)nn2c1
7,2430 nM,Brc1ccc2nc(-c3ccccc3Br)nn2c1
8,625 nM,Brc1ccc(-c2nc3cc(Br)ccn3n2)cc1
9,3330 nM,[O-][n+]1c(-c2ccc(Cl)cc2)nc2ccccn21
10,0.34 nM,[O-][n+]1c(-c2ccc(Br)cc2)nc2ccc(Cl)cn21
11,658 nM,Fc1ccc2nc(-c3ccc(Br)cc3)nn2c1
12,> 10000 nM,[O-][n+]1c(-c2ccc3ccccc3c2)nc2ccccn21
13,> 10000 nM,COc1ccc(-c2nc3ccccn3[n+]2[O-])cc1
14,759 nM,[O-][n+]1c(-c2ccc(Br)cc2)nc2ccc(C(F)(F)F)cn21
15,842 nM,Cc1ccc2nc(-c3ccc(Br)cc3)[n+]([O-])n2c1
16,1890 nM,Cc1ccc(-c2nc3ccc(Br)cn3n2)cc1
17,2500 nM,[O-][n+]1c(-c2ccc(Br)cc2)nc2ccccn21
18,> 10000 nM,Brc1ccc(-c2nc3ccc(-c4ccccc4)cn3n2)cc1
19,0.27 nM,[O-][n+]1c(-c2ccc(Br)cc2)nc2ccc(Br)cn21

row,EC50,Structure (SMILES)
1,0.83 nM,Clc1ccc(-c2nc3ccc(Br)cn3n2)cc1
2,9.6 nM,Brc1cccc(-c2nc3ccc(Br)cn3n2)c1
3,1190 nM,Fc1ccc(-c2nc3ccc(Br)cn3n2)cc1
4,62 nM,[O-][n+]1c(-c2ccc(Br)cc2)nc2cc(Br)ccn21
5,> 10000 nM,[O-][n+]1c(-c2ccc(Br)nc2)nc2ccccn21
6,23 nM,N#Cc1ccc2nc(-c3ccc(Br)cc3)nn2c1
7,> 10000 nM,Brc1ccc(-c2nc3cc4ccccc4cn3n2)cc1
8,4660 nM,[O-][n+]1c(-c2ccncc2)nc2ccccn21
9,83 nM,[O-][n+]1c(-c2ccc(Br)cc2)nc2cc(F)ccn21
10,172 nM,Brc1ccc(-c2nc3c(Br)cccn3n2)cc1
11,271 nM,[O-][n+]1c(-c2ccc(Br)cc2)nc2cc(Cl)ccn21
12,1090 nM,[O-][n+]1c(-c2ccc(Br)cc2)nc2ccc(F)cn21
13,205 nM,[O-][n+]1c(-c2ccc(Br)cc2)nc2cccc(Br)n21
14,> 10000 nM,[O-][n+]1c(-c2ccc(F)cc2)nc2ccccn21
15,> 10000 nM,COC(=O)c1ccc(-c2nc3ccccn3[n+]2[O-])cc1
16,625 nM,Brc1ccc(-c2nc3cccc(Br)n3n2)cc1
17,0.44 nM,FC(F)(F)c1ccc(-c2nc3ccc(Br)cn3n2)cc1
18,> 10000 nM,[O-][n+]1c(-c2cccnc2)nc2ccccn21

# System: not listed separately
# Experiment: Induction of apoptosis in human CD4+ve Th cells
# Type: toxicity, cell-based
# Conditions: not given
row,Structure (SMILES),IC50
1,CC(C)c1c(O)cc(/C=C/c2ccccc2)cc1O [TAPINAROF],5200 nM
